Experimental data reported in patent US8957074B2 (Novartis AG, priority 2010, dated 2015).
pIC50: −log10 of the molar value. Where two headings read alike, the source gives them in different places.

What was measured:
[1] = target: CDK1/cyclin B (Homo sapiens (Human), UniProt P06493); test: CDK1/cyclin B enzymatic activity assay (IMAP-FP); type: biochemical
From the text: CDK1/Cyclin B Enzymatic Activity Assay
A 384-well microtiter IMAP-FP™ (Molecular Devices Trade Mark Technology) endpoint assay was used for CDK1/cyclin B kinase activity measurements. The same assay was used for IC50 determination of small molecule inhibitors.

[2] = system: phosphorylation of pRb at the Ser780 site in JeKo-1 mantle cell lymphoma cells; test: CDK4 cellular assay: ELISA of pRb phosphorylation at Ser780 in JeKo-1 cells; type: cell-based
[3] = target: CDK4/cyclin D1 (Homo sapiens (Human), UniProt P11802); test: CDK4/cyclin D1 enzymatic activity assay (TR-FRET, phosphorylation of pRb at Ser780); type: biochemical
Sequence of CDK4/cyclin D1 (P11802 whole entry): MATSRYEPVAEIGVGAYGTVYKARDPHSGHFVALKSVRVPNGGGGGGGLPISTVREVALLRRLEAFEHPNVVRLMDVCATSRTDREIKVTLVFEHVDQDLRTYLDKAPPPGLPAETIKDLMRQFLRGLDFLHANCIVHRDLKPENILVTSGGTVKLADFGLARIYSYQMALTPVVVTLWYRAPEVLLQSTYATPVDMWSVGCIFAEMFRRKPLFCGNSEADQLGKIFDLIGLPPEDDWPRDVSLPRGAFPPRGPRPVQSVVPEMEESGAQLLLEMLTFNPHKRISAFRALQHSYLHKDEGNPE
Sequence of CDK4/cyclin D1 (P24385 whole entry partner): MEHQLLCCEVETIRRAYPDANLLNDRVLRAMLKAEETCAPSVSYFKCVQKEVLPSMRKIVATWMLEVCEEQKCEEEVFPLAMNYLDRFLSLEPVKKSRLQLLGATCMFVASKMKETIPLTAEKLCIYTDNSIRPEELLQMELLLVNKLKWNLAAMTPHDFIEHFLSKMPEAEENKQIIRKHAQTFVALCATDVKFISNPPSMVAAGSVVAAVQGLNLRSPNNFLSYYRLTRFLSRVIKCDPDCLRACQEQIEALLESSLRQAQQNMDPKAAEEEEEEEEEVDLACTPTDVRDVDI
Method in brief: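 Phosphorylation at pRb Ser780, detected by TR-FRET, gave IC50s and kinetics. Enzyme: baculovirus/Sf21-expressed human CDK4/cyclin D1. ATP at 3 μM initiated the reaction; EDTA (pH 8.0) stopped it after 60 min at 22° C.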

[4] = Homo sapiens, JeKo-1, JeKo-1 cells, p-pRb % inhibition adjusted with total pRb levels, read-out: Normalized cellular ppRb inhibition IC50
[5] = Homo sapiens, JeKo-1, JeKo-1 cells, p-pRb Ser780 ELISA, non-normalized, read-out: Cellular ppRb inhibition IC50
[6] = 0.3 nM CDK4/cyclin D1, 150 nM biotin-pRb (773-924), 3 μM ATP, 60 min at 22° C., read-out: Biochemical CDK4 enzyme IC50
[7] = 0.25 nM CDK1/cyclin B, 100 nM Tamra Histone-H1 peptide, 20 μM ATP, 120 min at room temperature, read-out: Biochemical CDK1 enzyme IC50
[8] = Homo sapiens, JeKo-1, read-out: Cellular ppRb inhibition IC50
[9] = Homo sapiens, JeKo-1, read-out: Normalized cellular ppRb inhibition IC50
[10] = […] CDK1/cyclin B, 100 nM Tamra Histone-H1 peptide, 20 μM ATP, 120 min at room temperature, read-out: Biochemical CDK1 enzyme IC50
[11] = Homo sapiens, JeKo-1 cells, p-pRb % inhibition adjusted with total pRb levels, read-out: Normalized cellular ppRb inhibition IC50
[12] = Homo sapiens, JeKo-1 cells, p-pRb Ser780 ELISA, non-normalized, read-out: Cellular ppRb inhibition IC50

Sequence of CDK1/cyclin B (P06493 whole entry, species assumed): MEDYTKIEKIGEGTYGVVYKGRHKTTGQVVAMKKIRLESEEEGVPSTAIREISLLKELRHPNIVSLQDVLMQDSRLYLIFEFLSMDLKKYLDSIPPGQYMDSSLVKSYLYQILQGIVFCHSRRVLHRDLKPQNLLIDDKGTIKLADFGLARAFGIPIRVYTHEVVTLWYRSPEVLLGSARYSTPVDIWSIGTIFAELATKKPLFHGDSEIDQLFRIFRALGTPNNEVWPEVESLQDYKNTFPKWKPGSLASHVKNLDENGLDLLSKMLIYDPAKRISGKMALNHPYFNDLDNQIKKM
Sequence of CDK1/cyclin B (P14635 whole entry partner, species assumed): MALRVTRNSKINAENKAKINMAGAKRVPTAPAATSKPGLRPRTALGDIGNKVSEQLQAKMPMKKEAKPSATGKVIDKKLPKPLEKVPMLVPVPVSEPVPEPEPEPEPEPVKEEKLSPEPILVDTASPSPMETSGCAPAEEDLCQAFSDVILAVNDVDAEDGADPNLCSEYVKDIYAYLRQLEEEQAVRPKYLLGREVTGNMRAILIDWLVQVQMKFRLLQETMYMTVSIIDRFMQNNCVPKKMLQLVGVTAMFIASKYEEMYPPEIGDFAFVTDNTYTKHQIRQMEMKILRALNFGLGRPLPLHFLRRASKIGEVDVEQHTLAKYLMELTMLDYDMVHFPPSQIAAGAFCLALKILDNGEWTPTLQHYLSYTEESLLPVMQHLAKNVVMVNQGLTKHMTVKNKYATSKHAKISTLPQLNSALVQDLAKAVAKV

Row | Structure (SMILES) | pIC50 [2, 4] | pIC50 [2, 5] | pIC50 [3, 6] | pIC50 [1, 7] | pIC50 [1, 10] | other results
1 | CN(C)C(=O)c1cc2cnc(Nc3ccc(C(=O)N4CC5CCC(C4)N5)cn3)nc2n1C1C[C@H]2CC[C@@H]1C2 (stereo partly drawn) [Example 76, 7-(1R,2R,4S)-Bicyclo[2.2.1]hept-2-yl-2-[5-(3,8-diaza-bicyclo[3.2.1]octane-3-carbonyl)-pyridin-2-ylamino]-7H-pyrrolo[2,3-d]pyrimidine-6-carboxylic acid dimethylamide] | 6.67 | 6.80 | 7.68 |  |  | pIC50 [1]: < 4.82
2 | CN(C)C(=O)c1cc2cnc(Nc3ccc(C(=O)N4CC5CC[C@@H](C4)N5)cn3)nc2n1[C@H]1C[C@@H]2CC[C@H]1C2 [Example 77, 7-(1S,2S,4R)-Bicyclo[2.2.1]hept-2-yl-2-[5-(3,8-diaza-bicyclo[3.2.1]octane-3-carbonyl)-pyridin-2-ylamino]-7H-pyrrolo[2,3-d]pyrimidine-6-carboxylic acid dimethylamide] | 6.65 | 6.76 | 7.57 |  |  | pIC50 [1]: < 4.82
3 | CN(C)C(=O)c1cc2cnc(Nc3ccc(N4CC5CC5(N)C4)cn3)nc2n1C1CCCC1 (stereo not drawn) [Example 78, 2-[5-(1-Amino-3-aza-bicyclo[3.1.0]hex-3-yl)-pyridin-2-ylamino]-7-cyclopentyl-7H-pyrrolo[2,3-d]pyrimidine-6-carboxylic acid dimethylamide] |  |  | 7.12 | < 4.82 |  | pIC50 [2, 8]: 7.23
4 | CN(C)C(=O)c1cc2cnc(Nc3ccc(N4CC5CCC(CC4=O)N5)nn3)nc2n1C1CCCC1 (stereo not drawn) [Example 79, 7-Cyclopentyl-2-[6-(4-oxo-3,9-diaza-bicyclo[4.2.1]non-3-yl)pyridazin-3-ylamino]-7H-pyrrolo[2,3-d]pyrimidine-6-carboxylic acid dimethylamide] | 6.93 | 7.52 |  | < 4.82 |  | pIC50 [3]: 7.38
5 | CN(C)C(=O)c1cc2cnc(Nc3ccc(N4CC5CCC(N5)C4=O)cn3)nc2n1C1CCCCCC1 (stereo not drawn) [Example 80, 7-Cycloheptyl-2-[5-(2-oxo-3,8-diaza-bicyclo[3.2.1]oct-3-yl)-pyridin-2-ylamino]-7H-pyrrolo[2,3-d]pyrimidine-6-carboxylic acid dimethylamide] | 6.32 to 7.13 | 6.49 to 7.29 |  | 4.85 |  | pIC50 [3]: 7.85 to 7.92
6 | CN(C)C(=O)c1cc2cnc(Nc3ccc(N4CC5CNCC5C4=O)cn3)nc2n1C1CCCCCC1 (stereo not drawn) [Example 81, 7-Cycloheptyl-2-[5-(1-oxo-hexahydro-pyrrolo[3,4-c]pyrrol-2-yl)-pyridin-2-ylamino]-7H-pyrrolo[2,3-d]pyrimidine-6-carboxylic acid dimethylamide] |  |  |  | 5.42 |  | pIC50 [2, 8]: 8.52; pIC50 [2, 9]: 8.40; pIC50 [3]: > 8.30
7 | CN(C)C(=O)c1cc2cnc(Nc3ccc(N4C[C@@H]5CNC[C@@H]5C4=O)cn3)nc2n1C1CCCCCC1 [Example 82, 7-cycloheptyl-N,N-dimethyl-2-(5-((3aS,6aR)-1-oxohexahydropyrrolo[3,4-c]pyrrol-2(1H)-yl)pyridin-2-ylamino)-7H-pyrrolo[2,3-d]pyrimidine-6-carboxamide] |  |  | 8.40 |  | 5.58 | pIC50 [2, 11]: 8.05; pIC50 [2, 12]: 8.30
8 | CN(C)C(=O)c1cc2cnc(Nc3ccc(N4C[C@H]5CNC[C@H]5C4=O)cn3)nc2n1C1CCCCCC1 [Example 83, 7-cycloheptyl-N,N-dimethyl-2-(5-((3aR,6aS)-1-oxohexahydropyrrolo[3,4-c]pyrrol-2(1H)-yl)pyridin-2-ylamino)-7H-pyrrolo[2,3-d]pyrimidine-6-carboxamide] |  |  | 8.52 |  | 5.27 | pIC50 [2, 11]: 8.05; pIC50 [2, 12]: 8.30
9 | CN(C)C(=O)c1cc2cnc(Nc3ccc(N4C[C@@H]5CNC[C@@H]5C4=O)cn3)nc2n1C1CCCC1 [Example 85, 7-cyclopentyl-N,N-dimethyl-2-(5-((3aS,6aR)-1-oxohexahydropyrrolo[3,4-c]pyrrol-2(1H)-yl)pyridin-2-ylamino)-7H-pyrrolo[2,3-d]pyrimidine-6-carboxamide] | 7.68 to 8.05 | 7.77 to 8.30 | 8.15 to 8.30 | 4.95 to 5.05 |  | 
10 | CN(C)C(=O)c1cc2cnc(Nc3ccc(N4C[C@H]5CNC[C@H]5C4=O)cn3)nc2n1C1CCCC1 [Example 86, 7-cyclopentyl-N,N-dimethyl-2-(5-((3aR,6aS)-1-oxohexahydropyrrolo[3,4-c]pyrrol-2(1H)-yl)pyridin-2-ylamino)-7H-pyrrolo[2,3-d]pyrimidine-6-carboxamide] | 7.85 to 7.89 | 7.77 to 8.10 | 8.22 to 8.30 |  | 4.69 | 
11 | CN1C[C@@H]2CC(=O)N(c3ccc(Nc4ncc5cc(C(=O)N(C)C)n(C6CCCCCC6)c5n4)nc3)C[C@@H]2C1 [Example 93, 7-cycloheptyl-N,N-dimethyl-2-(5-((3aS,7aR)-2-methyl-6-oxotetrahydro-1H-pyrrolo[3,4-c]pyridin-5(6H,7H,7aH)-yl)pyridin-2-ylamino)-7H-pyrrolo[2,3-d]pyrimidine-6-carboxamide] | 7.70 | 8.10 | > 8.30 |  | < 4.82 | 
12 | CN(C)C(=O)c1cc2cnc(Nc3ccc(N4CC5(CC6CCC(C5)N6)OC4=O)cn3)nc2n1C1CCCCC1 [Example 94, 7-cyclohexyl-N,N-dimethyl-2-(5-((1R,3r,5S)-2′-oxo-8-azaspiro[bicyclo[3.2.1]octane-3,5′-oxazolidine]-3′-yl)pyridin-2-ylamino)-7H-pyrrolo[2,3-d]pyrimidine-6-carboxamide] | 6.69 to 7.47 | 6.81 to 7.60 | 7.36 to 7.39 |  | < 4.82 | 
13 | CN(C)C(=O)c1cc2cnc(Nc3ccc(N4C(=O)CN5CCC4CC5)cn3)nc2n1C1CCCC1 [Example 96, 7-cyclopentyl-N,N-dimethyl-2-(5-(3-oxo-1,4-diazabicyclo[3.2.2]nonan-4-yl)pyridin-2-ylamino)-7H-pyrrolo[2,3-d]pyrimidine-6-carboxamide] |  |  | 7.55 to 7.82 |  | 4.97 | pIC50 ([2]; JeKo-1 cells, p-pRb % inhibition adjusted with total pRb levels, read-out: Normalized cellular ppRb inhibition IC50): 6.97 to 7.14; pIC50 ([2]; JeKo-1 cells, p-pRb Ser780 ELISA, non-normalized, read-out: Cellular ppRb inhibition IC50): 7.41 to 7.51
14 | CN(C)C(=O)c1cc2cnc(Nc3ccc(N4C(=O)CN5CCC4CC5)cn3)nc2n1C1CCCCCC1 [Example 97, 7-cycloheptyl-N,N-dimethyl-2-(5-(3-oxo-1,4-diazabicyclo[3.2.2]nonan-4-yl)pyridin-2-ylamino)-7H-pyrrolo[2,3-d]pyrimidine-6-carboxamide] |  |  | 7.29 | < 4.82 |  | pIC50 [2, 8]: 7.18; pIC50 [2, 9]: 6.84
15 | CN(C)C(=O)c1cc2cnc(Nc3ccc(N4CCN5CCCC5C4=O)cn3)nc2n1C1CCCCC1 (stereo not drawn) [Example 98, 7-Cyclohexyl-2-[5-(1-oxo-hexahydro-pyrrolo[1,2-a]pyrazin-2-yl)-pyridin-2-ylamino]-7H-pyrrolo[2,3-d]pyrimidine-6-carboxylic acid dimethylamide] |  |  | 7.01 to 7.80 |  | < 4.82 | pIC50 [2, 8]: 6.58 to 6.87; pIC50 [2, 9]: 6.05 to 6.54
16 | CN(C)C(=O)c1cc2cnc(Nc3ccc(N4CCN5CCCCC5C4=O)cn3)nc2n1C1CCCC1 (stereo not drawn) [Example 99, 7-Cyclopentyl-2-[5-(1-oxo-octahydro-pyrido[1,2-a]pyrazin-2-yl)-pyridin-2-ylamino]-7H-pyrrolo[2,3-d]pyrimidine-6-carboxylic acid dimethylamide] | 6.21 | 6.33 | 7.15 |  | < 4.82 | 
